Data reported in patent US20150105252A1, “SUBSTITUTED PYRAZOLES AS HERBICIDES” (E I DU PONT DE NEMOURS AND COMPANY, priority 2013, published 2015).

Key:
[1] = system: southern sandbur; test: Test F postemergence; format: in vivo, Cenchrus echinatus; settings: scale 0 to 100
Source text: (§1) Seeds of plant species selected from corn (Zea mays), soybean (Glycine max), velvetleaf (Abutilon theophrasti), lambsquarters (Chenopodium album), wild poinsettia (Euphorbia heterophylla), pigweed, palmer (palmer pigweed, Amaranthus palmeri), common waterhemp (Amaranthus rudis), surinam grass (Brachiaria decumbens), large crabgrass (Digitaria sanguinalis), crabgrass, Brazil (Brazilian crabgrass, Digitaria horizontalis), fall panicum (Panicum dichotomiflorum), giant foxtail (Setaria faberii), green foxtail (Setaria viridis), goosegrass (Eleusine indica), johnsongrass (Sorghum halepense), common ragweed (Ambrosia elation), barnyardgrass (Echinochloa crus-galli), southern sandbur (Cenchrus echinatus), arrowleaf sida (Sida rhombifolia), Italian ryegrass (Lolium multiflorum), dayflower, VA (Virginia (VA) dayflower, Commelina virginica), field bindweed (Convolvulus arvensis), cocklebur (common cocklebur, Xanthium strumarium), morningglory (Ipomoea coccinea), nightshade (eastern black nightshade, Solanum ptycanthum), kochia (Kochia scoparia), yellow nutsedge (Cyperus esculentus), and hairy beggarticks (Bidens pilosa), were planted into a silt loam soil and treated preemergence with test chemicals formulated in a non-phytotoxic solvent mixture which included a surfactant.
(§2) At the same time, plants from these crop and weed species and also horseweed (Canada horseweed, Conyza canadensis), smartweed (ladysthumb smartweed, Polygonum persicaria), waterhemp_RES1, (ALS & Triazine resistant common waterhemp, Amaranthus rudis), and waterhemp_RES2, (ALS & HPPD resistant common waterhemp, Amaranthus rudis) were treated with postemergence applications of test chemicals formulated in the same manner. Plants ranged in height from 2 to 18 cm for postemergence treatments (1- to 4-leaf stage). Treated plants and controls were maintained in a greenhouse for 14 to 21 days, after which time all species were compared to controls and visually evaluated. Plant response ratings, summarized in Table F, are based on a scale of 0 to 100 where 0 is no effect and 100 is complete control. A dash (-) response means no test result.

[2] = system: leafy spurge; test: Test E preemergence; format: in vivo, Euphorbia esula; settings: 21 days, scale 0 to 100
Source text: (§3) Seeds of plant species selected from bermudagrass (Cynodon dactylon), Surinam grass (Brachiaria decumbens), crabgrass, large (large crabgrass, Digitaria sanguinalis), crabgrass, naked (naked crabgrass, Digitaria nuda), foxtail, green (green foxtail, Setaria viridis), johnsongrass (Sorghum halepense), kochia (Kochia scoparia), morningglory (pitted morningglory, Ipomoea lacunosa), nutsedge, purple (purple nutsedge, Cyperus rotundus), ragweed (common ragweed, Ambrosia elation), mustard, black (black mustard, Brassica nigra), guineagrass (Panicum maximum), dallisgrass (Paspalum dilatatum), barnyardgrass (Echinochloa crus-galli), sandbur (southern sandbur, Cenchrus echinatus), sowthistle (common sowthistle, Sonchus oleraceous), ryegrass, Italian (Italian ryegrass, Lolium multiflorum), signalgrass (broadleaf signalgrass, Brachiaria platyphylla), dayflower, VA (Virginia (VA) dayflower, Commelina virginica), bluegrass (annual bluegrass, Poa annua), quackgrass (Elytrigia repens), mallow (common mallow, Malva sylvestris), buckwheat, wild (wild buckwheat, Polygonum convolvulus), leafy spurge (Euphorbia esula), common chickweed (Stellaria media), wild poinsettia (Euphorbia heterophylla), pigweed, palmer (palmer pigweed, Amaranthus palmeri), and pigweed (redroot pigweed, Amaranthus retroflexus) were planted into a blend of loam soil and sand and treated preemergence with test chemicals formulated in a non-phytotoxic solvent mixture which included a surfactant.
(§4) Treated plants and controls were maintained in a greenhouse for 21 days, after which time all species were compared to controls and visually evaluated. Plant response ratings, summarized in Table E, are based on a scale of 0 to 100 where 0 is no effect and 100 is complete control. A dash (-) response means no test result.

[3] = system: field bindweed; test: Test F postemergence; format: in vivo, Convolvulus arvensis; settings: scale 0 to 100
Source text: as §1, §2

[4] = system: corn; test: Test F postemergence; format: in vivo, Zea mays; settings: scale 0 to 100
Source text: as §1, §2

[5] = system: barnyardgrass; test: Test F postemergence; format: in vivo, Echinochloa crus-galli; settings: scale 0 to 100
Source text: as §1, §2

[6] = system: arrowleaf sida; test: Test F postemergence; format: in vivo, Sida rhombifolia; settings: scale 0 to 100
Source text: as §1, §2

[7] = system: soybean; test: Test F postemergence; format: in vivo, Glycine max; settings: scale 0 to 100
Source text: as §1, §2

[8] = system: common chickweed; test: Test E preemergence; format: in vivo, Stellaria media; settings: 21 days, scale 0 to 100
Source text: as §3, §4

[9] = system: Italian ryegrass; test: Test A postemergence; format: in vivo, Lolium multiflorum
How it was run: (§5)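 Pre- and postemergence greenhouse test; loam+sand; cpd in non-phytotox. solvent/surfactant; post at 1–2 leaf, 2–10 cm; visual score ~10 d, 0 = none, 100 = complete control.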

[10] = system: galium; test: Test A postemergence; format: in vivo, Galium aparine
How it was run: as §5

[11] = Postemergence, 500 g ai/ha, 0 to 100 scale (0 no effect, 100 complete control)
[12] = postemergence, 125 g ai/ha, about 10 days, visual rating on 0 to 100 scale (0 no effect, 100 complete control)

Row | SMILES | Plant response rating, Southern Sandbur ([1]; Postemergence, 31 g ai/ha) | Plant response rating, Southern Sandbur ([1]; Postemergence, 125 g ai/ha) | Plant response rating, Southern Sandbur ([1]; Postemergence, 250 g ai/ha) | Plant response rating, Southern Sandbur ([1]; postemergence, 62 g ai/ha) | Plant response rating, Southern Sandbur ([1]; postemergence, 500 g ai/ha) | Plant response rating, Leafy Spurge ([2]; 16 g ai/ha) | Plant response rating, Leafy Spurge ([2]; 31 g ai/ha) | Plant response rating, Leafy Spurge ([2]; 62 g ai/ha) | Plant response rating, Leafy Spurge ([2]; 125 g ai/ha) | Plant response rating, Leafy Spurge ([2]; 250 g ai/ha) | Plant response rating, Field Bindweed ([3]; Postemergence, 31 g ai/ha) | Plant response rating, Field Bindweed ([3]; Postemergence, 125 g ai/ha) | Plant response rating, Field Bindweed ([3]; Postemergence, 250 g ai/ha) | Plant response rating, Field Bindweed ([3]; postemergence, 62 g ai/ha) | Plant response rating, Field Bindweed ([3]; postemergence, 500 g ai/ha) | Plant response rating, Corn ([4]; Postemergence, 31 g ai/ha) | Plant response rating, Corn ([4]; Postemergence, 125 g ai/ha) | Plant response rating, Corn ([4]; Postemergence, 250 g ai/ha) | Plant response rating, Corn ([4]; postemergence, 62 g ai/ha) | Plant response rating, Barnyardgrass ([5]; Postemergence, 31 g ai/ha) | also measured
1 | CCc1cc(C(=O)NCC(F)(F)F)nn1Cc1ccnc(C(F)(F)F)c1 [Compound 78, 5-ethyl-N-(2,2,2-trifluoroethyl)-1-[[(2-trifluoromethyl)-4-pyridinyl]methyl]-1H-pyrazole-3-carboxamide] | 0 | 30 | 80 | 10 | 90 | 80 | 100 | 100 | 100 | 100 | 40 | 90 | 95 | 70 | 98 | 15 | 50 | 85 | 20 | 5 | Plant response rating, Barnyardgrass ([5]; Postemergence, 125 g ai/ha): 40; Plant response rating, Barnyardgrass ([5]; Postemergence, 250 g ai/ha): 70; Plant response rating, Barnyardgrass ([5]; postemergence, 62 g ai/ha): 30; Plant response rating, Barnyardgrass ([5]; postemergence, 500 g ai/ha): 90; Plant response rating, Arrowleaf Sida ([6]; Postemergence, 31 g ai/ha): 50; Plant response rating, Arrowleaf Sida ([6]; Postemergence, 125 g ai/ha): 75; Plant response rating, Arrowleaf Sida ([6]; Postemergence, 250 g ai/ha): 80; Plant response rating, Arrowleaf Sida ([6]; postemergence, 62 g ai/ha): 60; Plant response rating, Arrowleaf Sida ([6]; postemergence, 500 g ai/ha): 95; Plant response rating, Soybean ([7]; Postemergence, 31 g ai/ha): 75; Plant response rating, Soybean ([7]; Postemergence, 250 g ai/ha): 95; Plant response rating, Soybean ([7]; postemergence, 62 g ai/ha): 80; Plant response rating, Soybean ([7]; postemergence, 500 g ai/ha): 100
2 | CCc1cc(C(=O)NC(C)C)nn1Cc1ccnc(C(F)(F)F)c1 [Compound 103] |  |  |  |  |  | 75 | 95 | 100 | 100 | 100 |  |  |  |  |  |  |  |  |  |  | Plant response rating, Common Chickweed ([8]; 16 g ai/ha): 98; Plant response rating, Common Chickweed ([8]; 31 g ai/ha): 100; Plant response rating, Common Chickweed ([8]; 62 g ai/ha): 100; Plant response rating, Common Chickweed ([8]; 125 g ai/ha): 100; Plant response rating, Common Chickweed ([8]; 250 g ai/ha): 100
3 | CCOc1cc(C(=O)NCC(F)(F)F)nn1Cc1ccnc(C(F)(F)F)c1 [Compound 104] | 10 | 45 | 90 | 30 | 90 | 100 | 98 | 100 | 98 | 100 | 70 | 90 | 90 | 70 | 95 | 10 | 50 | 90 | 25 | 0 | Plant response rating, Common Chickweed ([8]; 16 g ai/ha): 100; Plant response rating, Common Chickweed ([8]; 31 g ai/ha): 100; Plant response rating, Common Chickweed ([8]; 62 g ai/ha): 100; Plant response rating, Common Chickweed ([8]; 125 g ai/ha): 100; Plant response rating, Common Chickweed ([8]; 250 g ai/ha): 100; Plant response rating, Barnyardgrass ([5]; Postemergence, 125 g ai/ha): 30; Plant response rating, Barnyardgrass ([5]; Postemergence, 250 g ai/ha): 80; Plant response rating, Barnyardgrass ([5]; postemergence, 62 g ai/ha): 10; Plant response rating, Barnyardgrass ([5]; postemergence, 500 g ai/ha): 95; Plant response rating, Arrowleaf Sida ([6]; Postemergence, 31 g ai/ha): 55; Plant response rating, Arrowleaf Sida ([6]; Postemergence, 125 g ai/ha): 70; Plant response rating, Arrowleaf Sida ([6]; Postemergence, 250 g ai/ha): 80; Plant response rating, Arrowleaf Sida ([6]; postemergence, 62 g ai/ha): 60; Plant response rating, Arrowleaf Sida ([6]; postemergence, 500 g ai/ha): 95; Plant response rating, Soybean ([7]; Postemergence, 31 g ai/ha): 95; Plant response rating, Soybean ([7]; Postemergence, 125 g ai/ha): 98; Plant response rating, Soybean ([7]; Postemergence, 250 g ai/ha): 98; Plant response rating, Soybean ([7]; postemergence, 62 g ai/ha): 95; Plant response rating, Soybean ([7]; postemergence, 500 g ai/ha): 95
4 | CCONC(=O)c1cc(CC)n(Cc2cc(C(F)(F)F)no2)n1 [Compound 125] |  |  |  |  |  |  |  |  |  |  |  |  |  |  |  |  |  |  |  |  | Italian Ryegrass plant response rating [9, 11]: 80; Italian Ryegrass plant response rating [9, 12]: 20; Galium plant response rating [10, 11]: 90; Galium plant response rating [10, 12]: 60
